Results taken from PubChem BioAssay (NCI).
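Briefly, cells in 96-well plates were exposed to five compound concentrations for 48 h, and endpoints were estimated by linear interpolation. GI50 marks 50% less growth. TGI denotes the concentration required for complete inhibition of growth.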

Tested on: DMS 273 small cell lung
Assay: NCI tumour cell line growth inhibition, 48 h

`Cc1noc(/N=C2\C=C(Nc3onc(C)c3C)C(=O)c3ccccc32)c1C` showed a TGI of over 100 µM.

Tested on: HOP-18 NSCLC
Assay: NCI tumour cell line growth inhibition, 48 h

First: O=S1(=O)c2ccccc2N=C(c2ccccc2Cl)CC1c1ccc(F)cc1 (stereo not given)
Second: Cn1nc(-c2ccccc2)c(C(=O)/C=C/c2ccc(Cl)cc2)c(N2CCCC2)c1=O
The TGI of the first is 1.5-fold higher: 29.3 µM for the first, 19.4 µM for the second.

`CC(/C=N/N=C(N)N)=N\N=C(N)N` and `CC(=O)OC(=O)O/C=C\CCl` cannot be ordered by TGI: 2060 µM for the first, over 100 µM for the second.

`CC1=CC(=O)NP(=O)(C23CC4CC(CC(C4)C2)C3)N1` (stereo not given) and `O=C1CCC(=O)c2sccc2N1` cannot be ordered by TGI: over 100 µM for the first, over 100 µM for the second.

`O=c1[nH]cc(C(F)(C(F)(F)F)C(F)(F)F)c(=O)[nH]1` and `O=C1C=Cc2ncccc2C1=O` cannot be ordered by TGI: over 100 µM for the first, over 64.7 µM for the second.

`COc1ccc2c(c1)c1c3n2CCNN=C3CCC1` and `COc1ccc(C)cc1C1CCC(=O)O1` (stereo not given) cannot be ordered by TGI: over 100 µM for the first, over 100 µM for the second.

`CC(C)N1C(C)[C@@H](c2ccccc2)O[P@]1(=O)CC1=CCCCC1` (stereo not given in full) and `COC(=O)/C(=N\Nc1nnc(C)n1N)C(C#N)c1ccccc1` (stereo not given) cannot be ordered by TGI: over 100 µM for the first, over 100 µM for the second.

Compared with `COC(=O)C(=O)C(C(=O)C(=O)Nc1cc(Cl)c(Cl)cc1Cl)c1nc2ccc([N+](=O)[O-])cc2[nH]c1=O` (stereo not given), `N#CC(C(=O)CCCC(=O)Nc1ccc(Cl)cc1Cl)c1ccc(Cl)cc1` (stereo not given) is higher in TGI: 95.2 µM for the first, over 100 µM for the second.

Compared with `COc1ccc(NC(=O)C2C(=O)N(c3ccc(OC)cc3)C(=O)/C2=N\NC(N)=O)cc1` (stereo not given), `Cc1ccc2nc(NC(=O)C(=O)CC(=O)c3cccc4ccccc34)sc2c1` is higher in TGI: 70.7 µM for the first, over 100 µM for the second.

Compared with `C/C(=N\NS(=O)(=O)c1ccc([N+](=O)[O-])cc1)c1ccc[n+]([O-])n1`, `Cc1ccc(/C=N/NS(=O)(=O)c2ccccc2)c(C)c1` is higher in TGI: 68.2 µM for the first, over 100 µM for the second.

`S=c1c2ccccc2c(=S)n2n1CC=CC2` and `CCCCNC1=C(C(=O)OCC)/C(=N/NC(=O)c2ccccc2O)CO1` cannot be ordered by TGI: over 100 µM for the first, over 100 µM for the second.

`[CH3][Sn]1([CH3])[O]CC(COc2cc(Cl)c(Cl)cc2Cl)[O]1` (stereo not given) and `CC(=O)c1c2c(cc3c1CC1(C3)Cc3cc4c(c(C(=O)O)c3C1)CCC4)CCC2` (stereo not given) cannot be ordered by TGI: over 100 µM for the first, over 100 µM for the second.

`C#CCOCn1cnc2ncnc(N)c21` and `Cc1noc(/N=C2\C=C(Nc3onc(C)c3C)C(=O)c3ccccc32)c1C` cannot be ordered by TGI: over 100 µM for the first, over 100 µM for the second.

`[CH3][Sn]1([CH3])[O]CC(COc2cc(Cl)c(Cl)cc2Cl)[O]1` (stereo not given) gave a GI50 of 75 µM.

Tested on: KM20L2 colon
Assay: NCI tumour cell line growth inhibition, 48 h

Compared with `O=S1(=O)c2ccccc2N=C(c2ccccc2Cl)CC1c1ccc(F)cc1` (stereo not given), `Cn1nc(-c2ccccc2)c(C(=O)/C=C/c2ccc(Cl)cc2)c(N2CCCC2)c1=O` is 2.5-fold lower in TGI: 37.4 µM for the first, 15.1 µM for the second.

`CC(/C=N/N=C(N)N)=N\N=C(N)N` and `CC(=O)OC(=O)O/C=C\CCl` cannot be ordered by TGI: 411 µM for the first, over 100 µM for the second.

`CC1=CC(=O)NP(=O)(C23CC4CC(CC(C4)C2)C3)N1` (stereo not given) and `O=C1CCC(=O)c2sccc2N1` cannot be ordered by TGI: over 100 µM for the first, over 100 µM for the second.

`O=c1[nH]cc(C(F)(C(F)(F)F)C(F)(F)F)c(=O)[nH]1` and `O=C1C=Cc2ncccc2C1=O` cannot be ordered by TGI: over 100 µM for the first, over 63.2 µM for the second.

`COc1ccc2c(c1)c1c3n2CCNN=C3CCC1` and `COc1ccc(C)cc1C1CCC(=O)O1` (stereo not given) cannot be ordered by TGI: over 100 µM for the first, over 100 µM for the second.

`CC(=O)[C-](C(C)=O)c1ccccc1.CC(=O)[C-](C(C)=O)c1ccccc1.CC(=O)[C-](C(C)=O)c1ccccc1.[Cl-].[Zr+4]` and `Cc1ccc2nc(NC(=O)C(=O)CC(=O)c3cccc4ccccc34)sc2c1` cannot be ordered by TGI: over 100 µM for the first, over 100 µM for the second.

`CC(C)N1C(C)[C@@H](c2ccccc2)O[P@]1(=O)CC1=CCCCC1` (stereo not given in full) and `O=CCCCC(Sc1ccccc1)Sc1ccccc1` cannot be ordered by TGI: over 100 µM for the first, over 100 µM for the second.

`COC(=O)C(=O)C(C(=O)C(=O)Nc1cc(Cl)c(Cl)cc1Cl)c1nc2ccc([N+](=O)[O-])cc2[nH]c1=O` (stereo not given) and `N#CC(C(=O)CCCC(=O)Nc1ccc(Cl)cc1Cl)c1ccc(Cl)cc1` (stereo not given) cannot be ordered by TGI: over 100 µM for the first, over 100 µM for the second.

`COc1ccc(NC(=O)C2C(=O)N(c3ccc(OC)cc3)C(=O)/C2=N\NC(N)=O)cc1` (stereo not given) and `Cc1ccc(/C=N/NS(=O)(=O)c2ccccc2)c(C)c1` cannot be ordered by TGI: over 100 µM for the first, over 100 µM for the second.

First: C/C(=N\NS(=O)(=O)c1ccc([N+](=O)[O-])cc1)c1ccc[n+]([O-])n1
Second: C/C(CC(=O)Nc1cccc([N+](=O)[O-])c1)=N\NC(=O)CC#N
The TGI of the first is lower: 19.5 µM for the first, over 100 µM for the second.

`S=c1c2ccccc2c(=S)n2n1CC=CC2` and `COC(=O)/C(=N\Nc1nnc(C)n1N)C(C#N)c1ccccc1` (stereo not given) cannot be ordered by TGI: over 100 µM for the first, over 100 µM for the second.

First: CC(C)(C)Sc1nnc(SC(C)(C)C)c2c(=O)[nH]nc(SC(C)(C)C)c12
Second: CCCCNC1=C(C(=O)OCC)/C(=N/NC(=O)c2ccccc2O)CO1
The TGI of the first is lower: 22.1 µM for the first, over 100 µM for the second.

`[CH3][Sn]1([CH3])[O]CC(COc2cc(Cl)c(Cl)cc2Cl)[O]1` (stereo not given) and `CCc1cc(Cc2ccc(C)c(NC(=O)C(=O)C3C(=O)NC(=O)NC3=O)c2CC)cc(C)c1NC(=O)C(=O)C1C(=O)NC(=O)NC1=O` cannot be ordered by TGI: over 100 µM for the first, over 100 µM for the second.

Going from `CC(/C=N/N=C(N)N)=N\N=C(N)N` to `CC(=O)[C-](C(C)=O)c1ccccc1.CC(=O)[C-](C(C)=O)c1ccccc1.CC(=O)[C-](C(C)=O)c1ccccc1.[Cl-].[Zr+4]`, the GI50 rises from 47.6 µM to over 100 µM.

`[CH3][Sn]1([CH3])[O]CC(COc2cc(Cl)c(Cl)cc2Cl)[O]1` (stereo not given) showed a GI50 of over 100 µM.
